In patent EP1337551B1, “SUBSTANCE P ANALOGS FOR THE TREATMENT OF CANCER” (DABUR PHARMA LTD., priority 2000, dated 2002):
Non-standard residues stand in square brackets, D forms with d. Residues, ends and D or L forms follow the SMILES beside them. pHOPA = not defined here

What was measured:
[1] = test system: KB (oral); assay: In vitro cytotoxic activity, MTT assay, 72 hours; format: cell-based, human
Procedure: (§1) The cytotoxic activity of synthesized peptides was tested on six human tumor cell lines namely MCF7 (breast), U373 (glioblastoma), PTC, (colon), L132 (lung), Su.86.86 (pancreas), and KB (oral). The tumor cells were collected at exponential growth phase and resuspended in medium (1.5 x 10^6 cells/ml in RPMI 1640 containing 10% FBS). 150µL of medium was added to the wells of a 96-well tissue culture plate (Nunc, Denmark) followed by 30µl of cell suspension. The plate was left in an incubator (37°C, 5% CO2) overnight. 20µl of the peptide (100 pM to 10 µM concentration) was added to marked wells of the 96-well plate. Each concentration was plated in triplicate. 20µl of medium alone was added to control wells while wells without cells served as blanks. A total volume of 200µL was ensured in each well and plate was left in incubator (37°C, 5% CO2). After 72 hours of incubation an MTT assay was performed and percentage cytotoxicity was calculated with respect to control cells.

[2] = test system: L132 (lung); assay: In vitro cytotoxic activity, MTT assay, 72 hours; format: cell-based, human
Procedure: as §1

[3] = test system: MCF7 (breast); assay: In vitro cytotoxic activity, MTT assay, 72 hours; format: cell-based, human
Procedure: as §1

[4] = test system: PTC, (colon); assay: In vitro cytotoxic activity, MTT assay, 72 hours; format: cell-based, human
Procedure: as §1

[5] = test system: Su.86.86 (pancreas); assay: In vitro cytotoxic activity, MTT assay, 72 hours; format: cell-based, human
Procedure: as §1

[6] = test system: U373 (glioblastoma); assay: In vitro cytotoxic activity, MTT assay, 72 hours; format: cell-based, human
Procedure: as §1

[7] = test system: ECV304 (Endothelial); assay: In vitro cytotoxic activity of lipo conjugates, MTT assay, 48 hours; format: cell-based
Procedure: (§2) The cytotoxic effect of lipo-conjugates of substance P analogs SEQ ID NO: 6, SEQ ID NO: 7 and SEQ ID NO: 8, was studied by MTT assay which is based on the principle of uptake of MTT [3-[4,5-dimethylthiazol-2-yl]-2,5-diphenyl tetrazolium bromide], a tetrazolium salt by the metabolically active cells where it is metabolized by active mitochondria in to a blue colored formazan product which can be read spectrophotometrically. Briefly, tumor cells - KB (Oral squamous), U87MG (Blioblastoma), HBL100 (Breast), HeP2 (Larngeal), ECV304 (Endothelial), PA-1 (Ovary) and L132 (Lunng) were incubated with the peptide analogs for 48 hours at 37°C in a 96-well culture plate, followed by the addition of 100 µg MTT and further incubation of 1 hour. The formazan crystals formed inside the cells were dissolved with a detergent comprising of 10% Sodium dodecyl sulfate and 0.01 N HCl and optical density read on a multiscan ELISA reader. The optical density was directly proportional to the number of proliferating and metabolically active cells. SEQ ID NO: 6

[8] = test system: HBL100 (Breast); assay: as above; format: cell-based
Procedure: as §2

[9] = test system: HeP2 (Larngeal); assay: as above; format: cell-based
Procedure: as §2

[10] = test system: KB (Oral squamous); assay: as above; format: cell-based
Procedure: as §2

[11] = test system: L132 (Lunng); assay: as above; format: cell-based
Procedure: as §2

[12] = test system: PA-1 (Ovary); assay: as above; format: cell-based
Procedure: as §2

[13] = test system: U87MG (Blioblastoma); assay: as above; format: cell-based
Procedure: as §2

[14] = test system: SCLC; conditions: inhibition of SCLC proliferation; cited from earlier work
[15] = test system: H-510 and H-69 SCLC cells; conditions: proliferation of H-510 and H-69 SCLC cells in liquid culture and in semi-solid media; cited from earlier work

CCCC(=O)N[C@H](CCCNC(=N)N)C(=O)N1CCC[C@H]1C(=O)N[C@@H](CCCCN)C(=O)N1CCC[C@H]1C(=O)N[C@H](Cc1ccccc1)C(=O)N[C@@H](CCC(N)=O)C(=O)N[C@H](Cc1c[nH]c2ccccc12)C(=O)N[C@@H](Cc1ccccc1)C(=O)N[C@H](Cc1c[nH]c2ccccc12)C(=O)N[C@@H](CC(C)C)C(=O)NC1(C(N)=O)CCCC1 [SEQ ID NO: 7, Butanoyl-D-Arg-Pro-Lys-Pro-D-Phe-Gln-D-Trp-Phe-D-Trp-Leu-Ac5c-NH2] (HELM PEPTIDE1{[CCCC(=O)[*:2]].[dR].P.K.P.[dF].Q.[dW].F.[dW].L.[O=C(C1(N[*:1])CCCC1)[*:2]].[am]}$$$$V2.0)
Percentage cytotoxicity at different concentrations ([1]; 100pM): Nil
Percentage cytotoxicity at different concentrations ([1]; 1nM): 6 ± 0.9%
Percentage cytotoxicity at different concentrations ([1]; 10nM): 10 ± 3.4%
Percentage cytotoxicity at different concentrations ([1]; 100nM): 10 ± 4.9%
Percentage cytotoxicity at different concentrations ([1]; 1µM): 4 ± 2.6%
Percentage cytotoxicity at different concentrations ([1]; 10µM): 15 ± 2.3%
Percentage cytotoxicity at different concentrations ([2]; 100pM): 14 ± 3.4%
Percentage cytotoxicity at different concentrations ([2]; 1nM): 25 ± 8%
Percentage cytotoxicity at different concentrations ([2]; 10nM): 19 ± 3.3%
Percentage cytotoxicity at different concentrations ([2]; 100nM): 9 ± 2.3%
Percentage cytotoxicity at different concentrations ([2]; 1µM): 9 ± 2.3%
Percentage cytotoxicity at different concentrations ([2]; 10µM): 15 ± 2.3%
Percentage cytotoxicity at different concentrations ([3]; MCF-7, 100pM): 19.3 ±1.8%
Percentage cytotoxicity at different concentrations ([3]; MCF-7, 1nM): 20.55 ± 3.1%
Percentage cytotoxicity at different concentrations ([3]; MCF-7, 10nM): 5.7 ± 1.5%
Percentage cytotoxicity at different concentrations ([3]; MCF-7, 100nM): 15.4 ± 0.7%
Percentage cytotoxicity at different concentrations ([3]; MCF-7, 1µM): 11.7 ± 5.1%
Percentage cytotoxicity at different concentrations ([3]; MCF-7, 10µM): 19.7 ±5%
Percentage cytotoxicity at different concentrations ([4]; 100pM): Nil
Percentage cytotoxicity at different concentrations ([4]; 1nM): Nil
Percentage cytotoxicity at different concentrations ([4]; 10nM): 5.8 ± 0.2%
Percentage cytotoxicity at different concentrations ([4]; 100nM): 5.3 ± 0.2%
Percentage cytotoxicity at different concentrations ([4]; 1µM): 11.7 ± 3.0%
Percentage cytotoxicity at different concentrations ([4]; 10µM): 27.3 ± 5.4%
Percentage cytotoxicity at different concentrations ([5]; Su8686, 100pM): 6 ± 1.8%
Percentage cytotoxicity at different concentrations ([5]; Su8686, 1nM): 25 ± 5.3%
Percentage cytotoxicity at different concentrations ([5]; Su8686, 10nM): 10 ± 2.8%
Percentage cytotoxicity at different concentrations ([5]; Su8686, 100nM): 15 ± 3.8%
Percentage cytotoxicity at different concentrations ([5]; Su8686, 1µM): 36 ± 3.3%
Percentage cytotoxicity at different concentrations ([5]; Su8686, 10µM): 38 ± 4.3%
Percentage cytotoxicity at different concentrations ([6]; 100pM): 10.9 ± 1.0%
Percentage cytotoxicity at different concentrations ([6]; 1nM): 13.4 ± 4.6%
Percentage cytotoxicity at different concentrations ([6]; 10nM): 6.6 ± 0.7%
Percentage cytotoxicity at different concentrations ([6]; 100nM): 8.8 ± 0.2%
Percentage cytotoxicity at different concentrations ([6]; 1µM): 8.3 ± 0.5%
Percentage cytotoxicity at different concentrations ([6]; 10µM): 21.1 ± 1.7%
Percentage cytotoxicity at different concentrations ([7]; 1nM): 13.9 ± 4.5%
Percentage cytotoxicity at different concentrations ([7]; 10nM): 16.5 ± 3.3%
Percentage cytotoxicity at different concentrations ([7]; 100nM): 20.9 ± 2.3%
Percentage cytotoxicity at different concentrations ([7]; 1µM): 6.0 ± 2.4%
Percentage cytotoxicity at different concentrations ([8]; 1nM): 13.9 ± 3.5%
Percentage cytotoxicity at different concentrations ([8]; 10nM): 22.9 ± 3.8%
Percentage cytotoxicity at different concentrations ([8]; 100nM): 23.9 ± 1.7%
Percentage cytotoxicity at different concentrations ([8]; 1µM): 22.8 ± 1.4%
Percentage cytotoxicity at different concentrations ([9]; 1nM): 16.4 ± 3.2%
Percentage cytotoxicity at different concentrations ([9]; 10nM): 19.8 ± 4.8%
Percentage cytotoxicity at different concentrations ([9]; 100nM): 24.7 ± 2.5%
Percentage cytotoxicity at different concentrations ([9]; 1µM): 12.9 ± 1.4%
Percentage cytotoxicity at different concentrations ([10]; 1nM): 20.9 ± 3.6%
Percentage cytotoxicity at different concentrations ([10]; 10nM): 21.9 ± 4.1%
Percentage cytotoxicity at different concentrations ([10]; 100nM): 18.0 ± 5.2%
Percentage cytotoxicity at different concentrations ([10]; 1µM): 9.0 ± 5.3%
Percentage cytotoxicity at different concentrations ([11]; 1nM): 14.9 ± 4.9%
Percentage cytotoxicity at different concentrations ([11]; 10nM): 24.7 ± 3.5%
Percentage cytotoxicity at different concentrations ([11]; 100nM): 18.5 ± 3.6%
Percentage cytotoxicity at different concentrations ([11]; 1µM): 12.9 ± 2.4%
Percentage cytotoxicity at different concentrations ([12]; 1nM): 12.7 ± 3.5%
Percentage cytotoxicity at different concentrations ([12]; 10nM): 26.7 ± 2.4%
Percentage cytotoxicity at different concentrations ([12]; 100nM): 32.9 ± 2.6%
Percentage cytotoxicity at different concentrations ([12]; 1µM): 23.7 ± 3.3%
Percentage cytotoxicity at different concentrations ([13]; 1nM): 22.9 ± 2.3%
Percentage cytotoxicity at different concentrations ([13]; 10nM): 27.8 ± 2.2%
Percentage cytotoxicity at different concentrations ([13]; 100nM): 21.8 ± 1.2%
Percentage cytotoxicity at different concentrations ([13]; 1µM): 14.8 ± 1.4%

D-MePhe-D-Trp-Phe-D-TrpLeu(psi)-(CH2NH)-Leu-NH2 [Analog 6]
IC50 [14]: 2 µM

D-MePhe-D-Trp-Phe-DTrp-Leu-MPA [Analog 7]
IC50 [14]: 5 µM

[D-Arg^1, D-Phe^5, D-Trp^7,9, Leu^11] substance P [Antagonist D]
IC50 [15]: 5 µM

pHOPA-D-Trp-Phe-D-Trp-Leu-Leu-NH2 (pHOPA-[dW]F[dW]LL-NH2; reading uncertain) [Analog R]
IC50 [14]: 10 µM
